# Measured values as given in publication doi:10.1101/2021.04.08.439011v1 (biorxiv, 2021).
# Tests used:
# Settings in all cases: 0.1 µM; binder
# ACVR2A = ACVR2A (Homo sapiens, UniProt P27037)
# ALK(C1156Y) = ALK(C1156Y) (Homo sapiens, UniProt Q9UM73, C1156Y)
# AMPK-alpha2 = AMPK-alpha2 (Homo sapiens, UniProt P54646)
# BMX = BMX (Homo sapiens, UniProt P51813)
# DYRK1A = DYRK1A (Homo sapiens, UniProt Q13627)
# EGFR(G719C) = EGFR(G719C) (Homo sapiens, UniProt P00533, G719C)
# EGFR(T790M) = EGFR(T790M) (Homo sapiens, UniProt P00533, T790M)
# EPHA7 = EPHA7 (Homo sapiens, UniProt Q15375)
# EPHB3 = EPHB3 (Homo sapiens, UniProt P54753)
# FLT4 = FLT4 (Homo sapiens, UniProt P35916)
# GSK3B = GSK3B (Homo sapiens, UniProt P49841)
# IRAK3 = IRAK3 (Homo sapiens, UniProt Q9Y616)
# LATS1 = LATS1 (Homo sapiens, UniProt O95835)
# LCK = LCK (Homo sapiens, UniProt P06239)
# MAP4K5 = MAP4K5 (Homo sapiens, UniProt Q9Y4K4)
# MARK4 = MARK4 (Homo sapiens, UniProt Q96L34)
# MERTK = MERTK (Homo sapiens, UniProt Q12866)
# MST1R = MST1R (Homo sapiens, UniProt Q04912)
# NEK6 = NEK6 (Homo sapiens, UniProt Q9HC98)
# PIK3C2G = PIK3C2G (Homo sapiens, UniProt O75747)
# PIK3CA(E542K) = PIK3CA(E542K) (Homo sapiens, UniProt P42336, E542K)
# PIK3CD = PIK3CD (Homo sapiens, UniProt O00329)
# PIM2 = PIM2 (Homo sapiens, UniProt Q9P1W9)
# PRKD2 = PRKD2 (Homo sapiens, UniProt Q9BZL6)
# RET = RET (Homo sapiens, UniProt P07949)
# RET(V804M) = RET(V804M) (Homo sapiens, UniProt P07949, V804M)
# RIPK4 = RIPK4 (Homo sapiens, UniProt P57078)
# TGFBR2 = TGFBR2 (Homo sapiens, UniProt P37173)
# TLK1 = TLK1 (Homo sapiens, UniProt Q9UKI8)
# TTK = TTK (Homo sapiens, UniProt P33981)
# TXK = TXK (Homo sapiens, UniProt P42681)
# TLK1, sequence (Q9UKI8 whole entry): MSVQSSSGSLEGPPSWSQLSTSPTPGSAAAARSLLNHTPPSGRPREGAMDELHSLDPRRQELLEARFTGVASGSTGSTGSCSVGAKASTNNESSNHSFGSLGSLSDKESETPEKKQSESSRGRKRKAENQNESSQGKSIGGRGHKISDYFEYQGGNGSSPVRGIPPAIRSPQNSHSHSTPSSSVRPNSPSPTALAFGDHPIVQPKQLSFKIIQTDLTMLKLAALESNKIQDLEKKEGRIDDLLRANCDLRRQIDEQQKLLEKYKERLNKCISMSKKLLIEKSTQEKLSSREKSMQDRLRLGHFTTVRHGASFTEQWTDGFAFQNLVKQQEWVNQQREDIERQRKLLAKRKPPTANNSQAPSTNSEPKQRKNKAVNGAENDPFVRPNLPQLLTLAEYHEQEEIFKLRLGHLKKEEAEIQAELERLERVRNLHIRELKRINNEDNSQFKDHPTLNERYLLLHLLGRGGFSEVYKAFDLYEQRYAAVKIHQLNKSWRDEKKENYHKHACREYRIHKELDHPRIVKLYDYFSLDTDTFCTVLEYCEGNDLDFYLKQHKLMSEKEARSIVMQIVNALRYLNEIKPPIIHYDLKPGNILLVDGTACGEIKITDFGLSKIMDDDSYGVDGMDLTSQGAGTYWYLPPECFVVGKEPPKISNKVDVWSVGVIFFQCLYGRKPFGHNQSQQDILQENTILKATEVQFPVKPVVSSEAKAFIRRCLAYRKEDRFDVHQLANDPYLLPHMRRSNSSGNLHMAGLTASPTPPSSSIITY
# IRAK3, sequence (Q9Y616 whole entry): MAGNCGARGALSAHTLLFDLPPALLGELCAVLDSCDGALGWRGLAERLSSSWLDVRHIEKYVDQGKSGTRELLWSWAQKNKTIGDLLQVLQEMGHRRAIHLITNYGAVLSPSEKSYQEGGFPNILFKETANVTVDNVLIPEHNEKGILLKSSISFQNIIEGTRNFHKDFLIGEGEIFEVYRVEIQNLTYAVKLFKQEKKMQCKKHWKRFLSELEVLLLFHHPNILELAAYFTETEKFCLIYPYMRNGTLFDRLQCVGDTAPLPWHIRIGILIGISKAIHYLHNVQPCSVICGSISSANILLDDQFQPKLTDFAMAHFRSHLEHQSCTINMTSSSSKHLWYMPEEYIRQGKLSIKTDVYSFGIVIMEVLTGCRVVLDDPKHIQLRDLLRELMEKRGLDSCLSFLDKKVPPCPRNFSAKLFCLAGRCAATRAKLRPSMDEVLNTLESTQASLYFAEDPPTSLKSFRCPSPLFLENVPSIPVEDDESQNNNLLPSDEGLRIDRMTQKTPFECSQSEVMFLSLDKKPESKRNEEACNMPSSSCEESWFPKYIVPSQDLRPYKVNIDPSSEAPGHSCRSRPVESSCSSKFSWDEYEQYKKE
# BMX, sequence (P51813 whole entry): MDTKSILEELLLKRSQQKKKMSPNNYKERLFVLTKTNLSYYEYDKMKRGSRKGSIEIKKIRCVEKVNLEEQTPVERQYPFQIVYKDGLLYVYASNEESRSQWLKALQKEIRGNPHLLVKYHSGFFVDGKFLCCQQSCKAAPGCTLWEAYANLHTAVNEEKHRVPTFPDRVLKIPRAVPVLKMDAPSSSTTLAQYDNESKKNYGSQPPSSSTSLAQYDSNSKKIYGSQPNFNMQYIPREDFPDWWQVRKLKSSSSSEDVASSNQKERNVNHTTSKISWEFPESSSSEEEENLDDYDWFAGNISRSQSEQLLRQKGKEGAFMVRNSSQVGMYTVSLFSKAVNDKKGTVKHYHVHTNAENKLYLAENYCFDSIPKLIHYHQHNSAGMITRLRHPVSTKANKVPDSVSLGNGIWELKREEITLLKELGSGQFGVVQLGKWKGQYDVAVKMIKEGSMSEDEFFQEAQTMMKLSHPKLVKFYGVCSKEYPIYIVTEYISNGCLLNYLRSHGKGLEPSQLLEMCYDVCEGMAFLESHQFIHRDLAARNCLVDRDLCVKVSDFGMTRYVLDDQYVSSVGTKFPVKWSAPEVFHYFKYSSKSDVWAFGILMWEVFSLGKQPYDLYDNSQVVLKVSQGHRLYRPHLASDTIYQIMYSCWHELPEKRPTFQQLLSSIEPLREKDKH
# ACVR2A, sequence (P27037 whole entry): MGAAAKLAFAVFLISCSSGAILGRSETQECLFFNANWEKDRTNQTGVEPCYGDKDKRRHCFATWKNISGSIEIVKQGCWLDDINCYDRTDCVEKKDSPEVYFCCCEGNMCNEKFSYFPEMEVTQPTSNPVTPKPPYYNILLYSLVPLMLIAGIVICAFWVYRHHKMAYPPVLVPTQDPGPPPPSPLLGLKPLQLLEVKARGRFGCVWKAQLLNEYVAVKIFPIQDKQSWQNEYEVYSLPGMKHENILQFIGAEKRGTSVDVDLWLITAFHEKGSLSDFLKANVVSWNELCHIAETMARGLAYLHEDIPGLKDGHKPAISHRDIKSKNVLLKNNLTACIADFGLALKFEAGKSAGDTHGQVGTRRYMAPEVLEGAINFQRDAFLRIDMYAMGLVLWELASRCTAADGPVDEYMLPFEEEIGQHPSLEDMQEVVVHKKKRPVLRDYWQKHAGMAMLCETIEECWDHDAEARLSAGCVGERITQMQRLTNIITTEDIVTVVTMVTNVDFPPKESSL
# TTK, sequence (P33981 whole entry): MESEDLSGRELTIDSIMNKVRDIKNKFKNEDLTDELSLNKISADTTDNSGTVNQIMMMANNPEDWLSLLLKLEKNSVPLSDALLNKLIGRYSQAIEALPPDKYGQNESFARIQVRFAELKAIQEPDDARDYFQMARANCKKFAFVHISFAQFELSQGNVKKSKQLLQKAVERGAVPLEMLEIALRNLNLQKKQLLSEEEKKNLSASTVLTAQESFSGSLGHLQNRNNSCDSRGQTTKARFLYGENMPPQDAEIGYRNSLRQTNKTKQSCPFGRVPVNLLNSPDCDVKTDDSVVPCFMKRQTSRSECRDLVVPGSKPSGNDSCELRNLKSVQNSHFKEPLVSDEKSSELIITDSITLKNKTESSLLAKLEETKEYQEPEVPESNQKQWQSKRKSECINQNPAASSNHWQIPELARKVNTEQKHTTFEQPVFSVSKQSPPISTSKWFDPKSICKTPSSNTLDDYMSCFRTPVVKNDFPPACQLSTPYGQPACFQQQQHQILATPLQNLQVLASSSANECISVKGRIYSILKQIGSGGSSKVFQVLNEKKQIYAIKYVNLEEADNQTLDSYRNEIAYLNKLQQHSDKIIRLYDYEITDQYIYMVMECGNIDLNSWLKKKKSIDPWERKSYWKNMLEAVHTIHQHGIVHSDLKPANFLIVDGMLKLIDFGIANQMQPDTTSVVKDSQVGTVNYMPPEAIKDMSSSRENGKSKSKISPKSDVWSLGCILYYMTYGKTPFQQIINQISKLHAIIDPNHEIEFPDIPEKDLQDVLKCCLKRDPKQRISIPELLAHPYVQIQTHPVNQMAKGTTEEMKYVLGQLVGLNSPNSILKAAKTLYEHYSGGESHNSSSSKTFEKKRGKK
# ALK(C1156Y), sequence (Q9UM73 whole entry C1156Y): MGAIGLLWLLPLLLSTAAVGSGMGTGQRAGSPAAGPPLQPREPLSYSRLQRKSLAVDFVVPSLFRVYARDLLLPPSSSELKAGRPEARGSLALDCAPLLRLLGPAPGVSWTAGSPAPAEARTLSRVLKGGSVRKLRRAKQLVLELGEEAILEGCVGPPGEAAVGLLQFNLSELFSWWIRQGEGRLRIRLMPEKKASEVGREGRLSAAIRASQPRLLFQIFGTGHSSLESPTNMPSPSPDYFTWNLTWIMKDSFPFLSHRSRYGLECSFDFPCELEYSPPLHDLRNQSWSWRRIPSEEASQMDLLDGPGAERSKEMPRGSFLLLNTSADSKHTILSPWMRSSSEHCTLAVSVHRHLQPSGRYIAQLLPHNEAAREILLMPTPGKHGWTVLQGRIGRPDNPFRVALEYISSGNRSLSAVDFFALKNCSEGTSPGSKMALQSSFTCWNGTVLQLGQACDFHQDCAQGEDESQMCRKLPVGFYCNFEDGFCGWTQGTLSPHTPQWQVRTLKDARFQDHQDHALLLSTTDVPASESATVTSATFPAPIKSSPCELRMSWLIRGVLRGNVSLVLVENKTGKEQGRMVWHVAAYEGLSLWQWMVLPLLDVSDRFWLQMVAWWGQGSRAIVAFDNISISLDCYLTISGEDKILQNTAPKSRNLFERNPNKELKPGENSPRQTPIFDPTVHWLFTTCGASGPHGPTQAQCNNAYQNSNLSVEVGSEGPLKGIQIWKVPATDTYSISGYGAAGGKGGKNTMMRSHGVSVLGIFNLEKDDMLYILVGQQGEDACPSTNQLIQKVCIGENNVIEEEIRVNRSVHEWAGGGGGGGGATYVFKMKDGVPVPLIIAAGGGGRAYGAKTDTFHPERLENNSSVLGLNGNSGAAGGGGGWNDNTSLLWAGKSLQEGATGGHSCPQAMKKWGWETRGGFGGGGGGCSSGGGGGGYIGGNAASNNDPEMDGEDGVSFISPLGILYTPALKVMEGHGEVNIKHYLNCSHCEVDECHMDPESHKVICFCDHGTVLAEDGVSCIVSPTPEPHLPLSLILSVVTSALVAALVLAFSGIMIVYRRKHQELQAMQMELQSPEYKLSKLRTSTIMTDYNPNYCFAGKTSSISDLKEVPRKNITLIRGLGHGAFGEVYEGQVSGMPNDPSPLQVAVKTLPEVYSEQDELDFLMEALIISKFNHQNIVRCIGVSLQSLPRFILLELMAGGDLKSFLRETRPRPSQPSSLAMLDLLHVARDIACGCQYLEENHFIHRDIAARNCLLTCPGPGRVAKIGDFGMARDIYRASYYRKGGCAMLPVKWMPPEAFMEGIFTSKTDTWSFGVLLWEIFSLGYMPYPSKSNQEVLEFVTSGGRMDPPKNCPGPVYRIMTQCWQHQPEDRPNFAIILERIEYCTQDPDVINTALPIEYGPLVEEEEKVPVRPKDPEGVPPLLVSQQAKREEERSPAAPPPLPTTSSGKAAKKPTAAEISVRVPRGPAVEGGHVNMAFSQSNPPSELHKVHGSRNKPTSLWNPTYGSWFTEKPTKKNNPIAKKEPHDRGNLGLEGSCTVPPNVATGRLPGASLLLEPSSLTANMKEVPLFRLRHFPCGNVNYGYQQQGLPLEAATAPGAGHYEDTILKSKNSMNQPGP
smiles,measurement,setting,value
"CNc1ncc2cc(-c3ccc(-c4cccc(C)n4)cc3Cl)c(=O)n(C[C@H]3OC[C@H](N)CO3)c2n1 [compound 6, G-5555]",Percent Control,ACVR2A,100%
same,Percent Control,ALK(C1156Y),100%
same,Percent Control,AMPK-alpha2,93%
same,Percent Control,BMX,100%
same,Percent Control,DYRK1A,100%
same,Percent Control,EGFR(G719C),100%
same,Percent Control,EGFR(T790M),100%
same,Percent Control,EPHA7,100%
same,Percent Control,EPHB3,100%
same,Percent Control,FLT4,100%
same,Percent Control,GSK3B,97%
same,Percent Control,IRAK3,95%
same,Percent Control,LATS1,57%
same,Percent Control,LCK,58%
same,Percent Control,MAP4K5,18%
same,Percent Control,MARK4,100%
same,Percent Control,MERTK,95%
same,Percent Control,MST1R,73%
same,Percent Control,NEK6,100%
same,Percent Control,PIK3C2G,95%
same,Percent Control,PIK3CA(E542K),89%
same,Percent Control,PIK3CD,53%
same,Percent Control,PIM2,100%
same,Percent Control,PRKD2,92%
same,Percent Control,RET,96%
same,Percent Control,RET(V804M),86%
same,Percent Control,RIPK4,97%
same,Percent Control,TGFBR2,100%
same,Percent Control,TLK1,100%
same,Percent Control,TTK,100%
same,Percent Control,TXK,100%
